Assay results from PMC11189301, “Structure of the human outer kinetochore KMN network complex” (Nature Structural & Molecular Biology, 2024).

Tests used:
[1] = test system: MIS12 complex; parameters: method as in PMID 24530301; details: compared with Nsl1 C-terminal peptide (residues 258–281); cited from earlier work
[2] = test system: Knl1; assay: SEC assessment of MIS12C^Nsl1ΔC binding to Knl1; parameters: species or system Homo sapiens; details: MIS12C^Nsl1ΔC (Nsl1 residues 265–281 deleted) + KNL1 at 4 µM each; 20 mM HEPES pH 7.8, 150 mM NaCl, 0.5 mM TCEP; Superose 6; at least two repeats
Experimental: Assessment of substitutions in the MIS12C–KNL1 interfaces
To test the effect of substitutions in the MIS12C–KNL1 interfaces, either wild-type MIS12C or MIS12C^Nsl1ΔC was mixed with either wild-type KNL1 or two mutants (KNL1^R2248D […] (KNL1^mut1), KNL1^S2270R S2272W (KNL1^mut2)) at 4 µM each in a buffer of 20 mM HEPES (pH 7.8), 150 mM NaCl and 0.5 mM TCEP, and 50 µl was loaded onto a Superose 6 size-exclusion column (Cytiva).
Extended Data Fig. 9 Biochemical validation of the MIS12C:Knl1 interface. a Coomassie blue-stained SDS-PAGE gels of the MIS12C:Knl1 interaction reconstitutions. MIS12C (WT) and MIS12C with Nsl1 truncated at the C-terminus (1–264 Nsl1 construct, MIS12C^Nsl1ΔC) were tested in their ability to bind either wild-type RWD domains of Knl1 (2131–2337 construct, labelled Knl1 for simplicity) or Knl1 mutants (R2248D/W2249S substitutions, Knl1^mut1, and S2270R/S2272W substitutions, Knl1^mut2, as well as S2270R/S2272W/R2248A/W2249S substitutions, Knl1^mut3). The binding experiments were repeated at least two independent times with identical results. The gels are aligned according to the fraction number of the protein sample eluted from the size exclusion column. b SEC elution chromatograms of all of the experiments described in (a). Source data

| Molecule | affinity of Knl1 for the whole MIS12 complex, in words [1] | MIS12C–Knl1 interaction by SEC, in words [2] |
| --- | --- | --- |
| Knl1: outer kinetochore protein Knl1; prior affinity data of ref 11 | only slightly higher than its affinity for a peptide modeled on the C terminus of Nsl1 alone (residues 258–281) |  |
| MIS12C^Nsl1ΔC: MIS12C with Nsl1 truncated at the C-terminus (1–264 Nsl1 construct; residues 265–281 deleted) (protein, left off: double strep II (DS), C-terminal, state not stated) chain 1: MSVDPMTYEAQFFGFTPQTCMLRIYIAFQDYLFEVMQAVEQVILKKLDGIPDCDISPVQIRKCTEKFLCFMKGHFDNLFSKMEQLFLQLILRIPSNILLPEDKCKETPYSEEDFQHLQKEIEQLQEKYKTELCTKQALLAELEEQKIVQAKLKQTLTFFDELHNVGRDHGTSDFRESLVSLVQNSRKLQNIRDNVEKESKRLKIS chain 2: MAEASSANLGSGCEEKRHEGSSSESVPPGTTISRVKLLDTMVDTFLQKLVAAGSYQRFTDCYKCFYQLQPAMTQQIYDKFIAQLQTSIREEISDIKEEGNLEAVLNALDKIVEEGKVRKEPAWRPSGIPEKDLHSVMAPYFLQQRDTLRRHVQKQEAENQQLADAVLAGRRQVEELQLQVQAQQQAWQALHREQRELVAVLREPE chain 3: MTSVTRSEIIDEKGPVMSKTHDHQLESSLSPVEVFAKTSASLEMNQGVSEERIHLGSSPKKGGNCDLSHQERLQSKSLHLSPQEQSASYQDRRQSWRRASMKETNRRKSLHPIHQGITELSRSISVDLAESKRLGCLLLSSFQFSIQKLEPFLRDTKGFSLESFRAKASSLSEELKHFADGLETDGTLQKCFEDSNGKASDFSLEASVAEMKEYITKFSLERQTWDQLLLHYQQEAKEILSRGSTEAKITEVKVEPMTYLGSSQNEVLNTKPDYQKILQNQSKVFDCMELVMDELQGSVKQLQAFMDESTQCFQKVSVQLGKRSMQQLDPSPARKLLKLQLQNPPAIHGSGSGSCQ chain 4: MAGSPELVVLDPPWDKELAAGTESQALVSATPREDFRVRCTSKRAVTEMLQLCGRFVQKLGDALPEEIREPALRDAQWTFESAVQENISINGQAWQEASDNCFMDSDIKVLEDQFDEIIVDIATKRKQYPRKILECVIKTIKAKQEILKQYHPVVHPLDLKYDPDPAPHMENLKCRGETVAKEISEAMKSLPALIEQGEGFSQVLRMQPVIHLQRIHQEVFSSCHRKPDAKPENFITQIETTPTETASRKTSDMVLKRKQTKDC |  | reduced the interaction strength between Knl1 and MIS12C |
